The values below come from US9597407B2, “Targeted antimicrobial moieties” (C3 Jian, Inc., priority 2009, dated 2017).

“Also recorded” adds a separate entry of the source.

Test [1] concerns microorganisms. In words: Peptide activities: binding, antimicrobial, growth or phenotype altering (Table 8). The text has this: In certain embodiments, peptides described herein can have multiple activities. Thus for example, a peptide can have both binding/targeting activity and antimicrobial activity. Such peptides can be used, e.g., in a chimeric construct, for any or all of these properties. Thus, for example, a peptide designated “B” in Table 8 can be used as a targeting peptide. If it is also designated G or M it can also be used for antimicrobial activity.

Test [2] deals with microorganisms. In words: Morphology, biofilm and growth disruption by peptides (Table 5). It counts as cell-based. Set-up: key: A: Peptide aggregates; B: Less hyphal formation; Clumps; Diffuse clumps and small polyps; F: Diffuse growth; H: Thin; I: Growth inhibition; Microcolony formation; Rippled; Small polyps; Thick; W: Halo formation on top, microlonies on bottom. From the text: In certain embodiments peptides that induce alterations in phenotype or other biological activities can also be used as antimicrobial effector moieties.

In the next test the test system is bacteria. In words: Binding of targeting peptides to microorganisms (Table 3). The settings on record: microorganism the targeting peptide binds; binding in aqueous buffers that varied with peptide solubility, preferably 1x PBS.

For “PF-017 (ESIIE; Peptide with targeting and/or antimicrobial activity)”, the Activities result in the test with microorganisms [1] was “G B”. In addition, in the test on microorganisms [2] (MRSA), the “Organism, effect” value was “MRSA (M)”. Besides, the “Target(s)” value with bacteria is listed as “E. coli”.

As for “PF-020 (MKIILLLFLIFGFIVVVTLKSEHQLTLFSI; Peptide with targeting and/or antimicrobial activity)”, the Activities entry with microorganisms [1] is on record as “G B”. For the same substance, the “Organism, effect” value with microorganisms [2] (M. luteus) is on record as “M. luteus (C)”; in the test with microorganisms [2] (MRSA) it was “MRSA (C)”; with microorganisms [2] (S. epidermidis), “S. epidermidis (C)”; in the test on microorganisms [2] (S. mutans), “S. mutans (F)”; in the test with microorganisms [2] (S. pneumoniae), “S. pneumoniae (D)”. Besides, the “Target(s)” value with bacteria was “S. epidermidis and M. luteus and C. albicans and MRSA and S. pneumoniae and E. faecalis”.

Turning to “PF-021 (FSLNFSKQKYVTVN; Peptide with targeting and/or antimicrobial activity)”, in the test on microorganisms [1], the Activities entry is given as “G B”. The “Organism, effect” value in the test on microorganisms [2] (C. jeikeium) is recorded as “C. jeikeium (R)”; with microorganisms [2] (M. luteus) it was “M. luteus (A)”; with microorganisms [2] (MRSA), “MRSA (R)”; with microorganisms [2] (S. epidermidis), “S. epidermidis (A)”. Also, the “Target(s)” value in the test on bacteria is given as “S. epidermidis; also recorded: M. luteus; also recorded: P. mirabilis; also recorded: E. coli; also recorded: C. albicans; also recorded: E. faecalis; also recorded: C. jeikeium”.

Consider “PF-024 (DLRKAK; Peptide with targeting and/or antimicrobial activity)”, for which the Activities result in the test with microorganisms [1] was “G B”. Also, the figures for the “Organism, effect” value in the test on microorganisms [2] (MRSA) and in the test on microorganisms [2] (S. epidermidis) were “MRSA (M)” and “S. epidermidis (D)”, respectively. The “Target(s)” value in the test with bacteria was “M. luteus and C. albicans and MRSA and E. faecalis and C. jeikeium”.

Take “PF-025 (LLIIFRLWLELKWKNKK; Peptide with targeting and/or antimicrobial activity)”: the Activities entry in the test on microorganisms [1] is “G B”. For the same substance, the “Organism, effect” value in the test with microorganisms [2] (C. jeikeium) is “C. jeikeium (A)”; in the test with microorganisms [2] (M. luteus) it was “M. luteus (A)”; in the test with microorganisms [2] (MRSA) it was “MRSA (R)”; in the test on microorganisms [2] (S. epidermidis) it was “S. epidermidis (S)”. Besides, the “Target(s)” value with bacteria is “S. epidermidis and M. luteus and P. mirabilis and E. coli and P. aeruginosa and MRSA and E. faecalis and C. jejuni”.

With “PF-026 (SIHFIN; Peptide with targeting and/or antimicrobial activity)”, the Activities result in the test with microorganisms [1] is “G B”. Also, the “Organism, effect” value in the test with microorganisms [2] (MRSA) is “MRSA (M)”. Besides, the “Target(s)” value with bacteria is “S. epidermidis and M. luteus and P. mirabilis and C. albicans and MRSA and E. faecalis and C. jeikeium”.

As for “PF-027 (HNARKYLEFISQKIDGDKLTKEDSL; Peptide with targeting and/or antimicrobial activity)”, the Activities entry with microorganisms [1] is reported as “G B”. The “Organism, effect” value is on record as “MRSA (M)” in the test with microorganisms [2] (MRSA) and “S. epidermidis (D)” in the test with microorganisms [2] (S. epidermidis). Moreover, the “Target(s)” value with bacteria was “M. luteus and MRSA and E. faecalis and C. jejuni”.

Take “PF-029 (NSTNE; Peptide with targeting and/or antimicrobial activity)”: in the test with microorganisms [1], the Activities result is “G B”. Further, in the test on microorganisms [2] (MRSA), the “Organism, effect” value is listed as “MRSA (M)”. Also, the “Target(s)” value in the test on bacteria is reported as “S. epidermidis; also recorded: M. luteus; also recorded: C. albicans; also recorded: C. jejuni”.

With “PF-031 (MPHHSTTSSRIVVPAHQSNMASTPNLSITP; Peptide with targeting and/or antimicrobial activity)”, the Activities result in the test with microorganisms [1] is given as “G B”. Besides, the “Organism, effect” value with microorganisms [2] (MRSA) was “MRSA (M)”. Besides, the “Target(s)” value in the test with bacteria is on record as “M. luteus; also recorded: C. albicans”.

On to “PF-034 (EPKKKHFPKMESASSEP; Peptide with targeting and/or antimicrobial activity)”, for which the Activities result in the test on microorganisms [1] is listed as “G B”. In the test on microorganisms [2] (S. epidermidis), the “Organism, effect” value is “S. epidermidis (A)”. For the same substance, in the test with bacteria, the “Target(s)” value was “M. luteus”.

As to “PF-035 (SFYESY; Peptide with targeting and/or antimicrobial activity)”, in the test on microorganisms [1], the Activities result is reported as “G B”. In addition, in the test on microorganisms [2] (MRSA), the “Organism, effect” value is on record as “MRSA (M)”. Moreover, in the test with bacteria, the “Target(s)” value is “S. epidermidis and M. luteus and E. coli and C. albicans and MRSA and C. jeikeium and C. jejuni”.

As for “PF-036 (ILNRLSRIVSNEVTSLIYSLK; Peptide with targeting and/or antimicrobial activity)”, the Activities result with microorganisms [1] is listed as “G B”. Besides, the “Organism, effect” value in the test on microorganisms [2] (C. jeikeium) is on record as “C. jeikeium (A)”; with microorganisms [2] (M. luteus), “M. luteus (A)”; in the test with microorganisms [2] (MRSA), “MRSA (R)”; in the test with microorganisms [2] (S. epidermidis), “S. epidermidis (S)”. Also, the “Target(s)” value in the test with bacteria was “S. epidermidis and M. luteus and P. mirabilis and E. coli and C. albicans and MRSA and S. pneumoniae and C. jejuni”.

Regarding “PF-037 (MTKKRRYDTTEFGLAHSMTAKITLHQALYK; Peptide with targeting and/or antimicrobial activity)”, in the test with microorganisms [1], the Activities result is reported as “G B”. Moreover, the “Organism, effect” value in the test on microorganisms [2] (C. jeikeium) is on record as “C. jeikeium (D)”; with microorganisms [2] (M. luteus) it was “M. luteus (C)”; in the test on microorganisms [2] (MRSA), “MRSA (R)”; in the test with microorganisms [2] (S. epidermidis) it was “S. epidermidis (D)”. In the test with bacteria, the “Target(s)” value is “S. epidermidis and M. luteus and P. aeruginosa and C. albicans and MRSA and S. pneumoniae and E. faecalis and C. jeikeium”.

As for “PF-041 (ELLVILPGFI; Peptide with targeting and/or antimicrobial activity)”, the Activities entry with microorganisms [1] is “G B”. The “Organism, effect” value in the test with microorganisms [2] (MRSA) is “MRSA (M)”; in the test on microorganisms [2] (S. epidermidis), “S. epidermidis (R)”. The “Target(s)” value with bacteria is “MRSA”.

As for “PF-043 (MIKNETAYQMNELLVIRSAYAK; Peptide with targeting and/or antimicrobial activity)”, the Activities result in the test with microorganisms [1] is reported as “G B”. The “Organism, effect” value in the test with microorganisms [2] (C. jeikeium) was “C. jeikeium (A)”; in the test with microorganisms [2] (M. luteus), “M. luteus (C)”; in the test with microorganisms [2] (MRSA), “MRSA (R)”; with microorganisms [2] (S. epidermidis), “S. epidermidis (D)”. Further, the “Target(s)” value in the test with bacteria was “M. luteus; also recorded: C. jejuni”.

Regarding “PF-045 (LDINDYRSTY; Peptide with targeting and/or antimicrobial activity)”, the Activities entry in the test with microorganisms [1] is reported as “G B”. Moreover, in the test on microorganisms [2] (MRSA), the “Organism, effect” value was “MRSA (S)”. In the test on bacteria, the “Target(s)” value is on record as “S. epidermidis; also recorded: E. coli; also recorded: E. faecalis; also recorded: C. jejuni”.

As for “PF-046 (LDFYLTKHLTLML; Peptide with targeting and/or antimicrobial activity)”, in the test on microorganisms [1], the Activities result is on record as “G B”. The figures for the “Organism, effect” value in the test with microorganisms [2] (C. jeikeium), in the test with microorganisms [2] (MRSA) and in the test with microorganisms [2] (S. epidermidis) were “C. jeikeium (R)”, “MRSA (R)” and “S. epidermidis (C)”, respectively. The “Target(s)” value in the test on bacteria is recorded as “E. coli; also recorded: E. faecalis; also recorded: C. jeikeium”.

For the substance “PF-048 (LYFAFKKYQERVNQAPNIEY; Peptide with targeting and/or antimicrobial activity)”, the Activities entry in the test on microorganisms [1] is “G B”. The “Organism, effect” value with microorganisms [2] (C. jeikeium) is on record as “C. jeikeium (S)”; in the test on microorganisms [2] (MRSA), “MRSA (W)”; in the test with microorganisms [2] (S. epidermidis), “S. epidermidis (D)”. For the same substance, the “Target(s)” value in the test with bacteria is “S. epidermidis and M. luteus and E. coli and MRSA and C. jeikeium and C. jejuni”.

As for “PF-049 (AYYLKRREEKGK; Peptide with targeting and/or antimicrobial activity)”, the Activities entry in the test with microorganisms [1] is recorded as “G B”. Moreover, the “Organism, effect” value with microorganisms [2] (MRSA) was “MRSA (S)”. In the test with bacteria, the “Target(s)” value was “S. epidermidis and MRSA and C. jeikeium and C. jejuni”.

In the case of “PF-051 (RFFNFEIKKSTKVDYVFAHVDLSDV; Peptide with targeting and/or antimicrobial activity)”, the Activities result with microorganisms [1] is listed as “G B”. The “Organism, effect” value was “M. luteus (C)” with microorganisms [2] (M. luteus); “MRSA (D)” with microorganisms [2] (MRSA); “S. epidermidis (D)” in the test on microorganisms [2] (S. epidermidis); “S. mutans (D)” with microorganisms [2] (S. mutans); “S. pneumoniae (D)” in the test on microorganisms [2] (S. pneumoniae). For the same substance, the “Target(s)” value with bacteria was “S. epidermidis and M. luteus and P. aeruginosa and C. albicans and MRSA and S. pneumoniae and E. faecalis”.

In the case of “PF-052 (QELINEAVNLLVKSK; Peptide with targeting and/or antimicrobial activity)”, in the test on microorganisms [1], the Activities entry is “G B”. Also, the “Organism, effect” value with microorganisms [2] (C. jeikeium) was “C. jeikeium (D)”; in the test with microorganisms [2] (M. luteus) it was “M. luteus (A)”; with microorganisms [2] (MRSA) it was “MRSA (R)”; in the test on microorganisms [2] (S. epidermidis) it was “S. epidermidis (S)”. For the same substance, in the test with bacteria, the “Target(s)” value is “S. epidermidis and M. luteus and E. coli and MRSA and E. faecalis and C. jeikeium and C. jejuni”.

For “PF-053 (KLFGQWGPELGSIYILPALIGSIILIAIVTLILRAMRK; Peptide with targeting and/or antimicrobial activity)”, the Activities entry in the test with microorganisms [1] is reported as “G B”. In addition, the “Organism, effect” value in the test on microorganisms [2] (B. subtilis) is reported as “B. subtilis (H)”; in the test with microorganisms [2] (C. albicans), “C. albicans (A)”; in the test with microorganisms [2] (C. jeikeium) it was “C. jeikeium (D)”; with microorganisms [2] (C. jejuni), “C. jejuni (D)”; with microorganisms [2] (E. coli), “E. coli (A)”; in the test with microorganisms [2] (E. faecalis) it was “E. faecalis (A)”. Also, the “Organism, effect” value in the test with microorganisms [2] (M. luteus) was “M. luteus (D)”; with microorganisms [2] (MRSA), “MRSA (D)”; in the test on microorganisms [2] (P. aeruginosa), “P. aeruginosa (A)”; with microorganisms [2] (S. epidermidis), “S. epidermidis (C)”; in the test on microorganisms [2] (S. pneumoniae), “S. pneumoniae (S)”. In addition, the “Target(s)” value with bacteria was “S. epidermidis and M. luteus and E. coli and P. aeruginosa and C. albicans and MRSA and S. pneumoniae and E. faecalis”.
